Test results taken from patent publication US11000033B2, “Ketone or oxime compound, and herbicide” (NISSAN CHEMICAL CORPORATION, priority 2014, dated 2021).

Legend:
Type in all cases: in vivo
[1] = system: Echinochloa oryzacola Vasing.; experiment: Test Example 1: herbicidal activity, application before weed generation in submerged conditions (symbol A); conditions: application herbicide amount 320 g/ha
How it was run: (§1)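 Weeds are sown into submerged alluvial soil alongside transplanted 2.5-leaf rice, and the compound, as an emulsion diluted to a set rate, is applied onto the water before emergence. Rating on the 0–5 herbicidal-ratio scale follows 3 weeks of greenhouse growth at 25–30 °C.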

Monochoria vaginalis [2] = experiment: Test Example 1: herbicidal activity, application before weed generation in submerged conditions (symbol C); conditions: application herbicide amount 320 g/ha
How it was run: as §1

Monochoria vaginalis [3] = experiment: Test Example 2: herbicidal activity, application during weed generation in submerged conditions (symbol C); conditions: Table 23; application herbicide amount 320 g/ha; grade 0-5 by criteria of Test Example 1
How it was run: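 Alluvial soil in pots was flooded to a 4 cm water depth and sown with a mix of the three weed species, then grown in a greenhouse at 25° C. to 30° C. At the one- to two-leaf stage, an emulsifiable formulation diluted in water to a set dose was applied to the water surface. Effects were scored visually 3 weeks later.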

[4] = system: Echinochloa crus-galli var. crus-galli; experiment: Test Example 4: herbicidal effect by soil treatment (symbol H); conditions: application herbicide amount 320 g/ha
How it was run: (§2)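 Seeds were sown in sterilized diluvial soil, covered with about 1.5 cm of soil, and the soil surface was sprayed with a water-diluted emulsion of the compound at a predetermined rate. Plants grew in a greenhouse at 25° C. to 30° C.; effects were scored visually 3 weeks after application.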

Avena fatua [5] = experiment: Test Example 4: herbicidal effect by soil treatment (symbol I); conditions: application herbicide amount 320 g/ha
How it was run: as §2

Apera spica-venti [6] = experiment: Test Example 4: herbicidal effect by soil treatment (symbol L); conditions: application herbicide amount 320 g/ha
How it was run: as §2

Abutilon theophrasti = experiment: Test Example 4: herbicidal effect by soil treatment (symbol M); conditions: application herbicide amount 320 g/ha
How it was run: as §2

soybean = experiment: Test Example 4: effect on crop by soil treatment (symbol d); conditions: application herbicide amount 320 g/ha
How it was run: (§3)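 Grown at 25° C. to 30° C. in a greenhouse, the crops came from seed sown spot-wise in sterilized diluvial soil under roughly 1.5 cm of covering soil.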

rice = experiment: Test Example 4: effect on crop by soil treatment (symbol b); conditions: application herbicide amount 320 g/ha
How it was run: as §3

beet = experiment: Test Example 4: effect on crop by soil treatment (symbol f); conditions: application herbicide amount 320 g/ha
How it was run: as §3

Setaria viridis = experiment: Test Example 5: herbicidal effect by foliage application, plastic box (symbol G); conditions: 320 g/ha, 3 weeks after application
How it was run: (§4)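 Seeds were sown in sterilized diluvial soil, covered with about 1.5 cm of soil and grown 14 days in a greenhouse at 25° C. to 30° C. An emulsifiable formulation diluted in water to a set rate was sprayed over foliage, and injury was scored 3 weeks later.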

[7] = system: Echinochloa crus-galli var. crus-galli; experiment: Test Example 5: herbicidal effect by foliage application, plastic box (symbol H); conditions: 320 g/ha, 3 weeks after application
How it was run: as §4

Avena fatua [8] = experiment: Test Example 5: herbicidal effect by foliage application, plastic box (symbol I); conditions: 320 g/ha, 3 weeks after application
How it was run: as §4

Apera spica-venti [9] = experiment: Test Example 5: herbicidal effect by foliage application, plastic box (symbol L); conditions: 320 g/ha, 3 weeks after application
How it was run: as §4

corn = experiment: Test Example 5: effect on crop by foliage application, plastic box (symbol c); conditions: 320 g/ha, 3 weeks after application
How it was run: (§5)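 Seeds were sown in spots in sterilized diluvial soil held in a plastic box 21 cm × 13 cm × 7 cm deep, covered with about 1.5 cm of soil, and grown in a greenhouse at 25° C. to 30° C.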

rapeseed = experiment: Test Example 5: effect on crop by foliage application, plastic box (symbol g); conditions: 320 g/ha, 3 weeks after application
How it was run: as §5

| Compound | Herbicidal effect grade, A: Echinochloa oryzacola Vasing. [1] | Herbicidal effect grade, C: Monochoria vaginalis (Monochoria vaginalis [2]) | Herbicidal effect grade, C: Monochoria vaginalis (Monochoria vaginalis [3]) | H (Echinochloa crus-galli var. crus-galli) herbicidal effect grade [4] | I (Avena fatua) herbicidal effect grade (Avena fatua [5]) | L (Apera spica-venti) herbicidal effect grade (Apera spica-venti [6]) | M (Abutilon theophrasti) herbicidal effect grade (Abutilon theophrasti) | d (soybean) effect on crop grade (soybean) | b (directly sowed rice plant) effect on crop grade (rice) | f (beet) effect on crop grade (beet) | G: Setaria viridis, herbicidal effect grade (Setaria viridis) | H: Echinochloa crus-galli var. crus-galli, herbicidal effect grade [7] | I: Avena fatua, herbicidal effect grade (Avena fatua [8]) | L: Apera spica-venti, herbicidal effect grade (Apera spica-venti [9]) | c: corn, effect on crop grade (corn) | g: rapeseed, effect on crop grade (rapeseed) | Herbicidal effect grade, H: Echinochloa crus-galli var. crus-galli [4] | Herbicidal effect grade, I: Avena fatua (Avena fatua [5]) | Herbicidal effect grade, L: Apera spica-venti (Apera spica-venti [6]) | Herbicidal effect grade, M: Abutilon theophrasti (Abutilon theophrasti) | further results |
| --- | --- | --- | --- | --- | --- | --- | --- | --- | --- | --- | --- | --- | --- | --- | --- | --- | --- | --- | --- | --- | --- |
| CC(CC1CC(O)=C(c2c(C)cc(C)cc2C)C1=O)=NOCc1ccccc1 (stereo not shown) [1-020] | 5 (Herbicidal ratio of 90% or more (almost completely withered)) | 4 (Herbicidal ratio of 70% or higher and lower than 90%) | 2 (Herbicidal ratio of 20% or higher and lower than 40%) | 5 (Herbicidal ratio of 90% or more (almost completely withered)) | 4 (Herbicidal ratio of 70% or higher and lower than 90%) | 5 (Herbicidal ratio of 90% or more (almost completely withered)) | 3 (Herbicidal ratio of 40% or higher and lower than 70%) | 0 (Herbicidal ratio of 5% or lower (almost no effect)) | 5 (Herbicidal ratio of 90% or more (almost completely withered)) | 0 (Herbicidal ratio of 5% or lower (almost no effect)) | 5 (Herbicidal ratio of 90% or more (almost completely withered)) | 5 (Herbicidal ratio of 90% or more (almost completely withered)) | 4 (Herbicidal ratio of 70% or higher and lower than 90%) | 5 (Herbicidal ratio of 90% or more (almost completely withered)) | 1 (Herbicidal ratio of 5% or higher and lower than 20%) | 4 (Herbicidal ratio of 70% or higher and lower than 90%) | – | – | – | – | – |
| CC(=O)CC1CC(O)=C(c2c(C)cc(C)cc2Br)C1=O (stereo not shown) [7-011] | 2 (Herbicidal ratio of 20% or higher and lower than 40%) | 0 (Herbicidal ratio of 5% or lower (almost no effect)) | 0 (Herbicidal ratio of 5% or lower (almost no effect)) | – | – | – | – | – | – | – | – | – | – | – | – | – | 4 (Herbicidal ratio of 70% or higher and lower than 90%) | 0 (Herbicidal ratio of 5% or lower (almost no effect)) | 3 (Herbicidal ratio of 40% or higher and lower than 70%) | 0 (Herbicidal ratio of 5% or lower (almost no effect)) | Effect on crop grade, d: soybean (soybean): 0 (Herbicidal ratio of 5% or lower (almost no effect)); Effect on crop grade, b: directly sowed rice plant (rice): 5 (Herbicidal ratio of 90% or more (almost completely withered)); Effect on crop grade, f: beet (beet): 0 (Herbicidal ratio of 5% or lower (almost no effect)); G: Setaria viridis, herbicidal effect (criteria of Test Example 1) (Setaria viridis): 3 (Herbicidal ratio of 40% or higher and lower than 70%); H: Echinochloa crus-galli var. crus-galli, herbicidal effect (criteria of Test Example 1) [7]: 5 (Herbicidal ratio of 90% or more (almost completely withered)); I: Avena fatua, herbicidal effect (criteria of Test Example 1) (Avena fatua [8]): 3 (Herbicidal ratio of 40% or higher and lower than 70%); L: Apera spica-venti, herbicidal effect (criteria of Test Example 1) (Apera spica-venti [9]): 3 (Herbicidal ratio of 40% or higher and lower than 70%); c: corn, effect on crop (criteria of Test Example 1) (corn): 2 (Herbicidal ratio of 20% or higher and lower than 40%); g: rapeseed, effect on crop (criteria of Test Example 1) (rapeseed): 4 (Herbicidal ratio of 70% or higher and lower than 90%) |
| CC(=O)CC1CC(O)=C(c2c(C)cc(-c3ccc(C(F)(F)F)cc3)cc2C)C1=O (stereo not shown) [7-005] | 3 (Herbicidal ratio of 40% or higher and lower than 70%) | 0 (Herbicidal ratio of 5% or lower (almost no effect)) | 0 (Herbicidal ratio of 5% or lower (almost no effect)) | – | – | – | – | – | – | – | – | – | – | – | – | – | 0 (Herbicidal ratio of 5% or lower (almost no effect)) | 0 (Herbicidal ratio of 5% or lower (almost no effect)) | 0 (Herbicidal ratio of 5% or lower (almost no effect)) | 0 (Herbicidal ratio of 5% or lower (almost no effect)) | Effect on crop grade, d: soybean (soybean): 0 (Herbicidal ratio of 5% or lower (almost no effect)); Effect on crop grade, b: directly sowed rice plant (rice): 1 (Herbicidal ratio of 5% or higher and lower than 20%); Effect on crop grade, f: beet (beet): 0 (Herbicidal ratio of 5% or lower (almost no effect)); G: Setaria viridis, herbicidal effect (criteria of Test Example 1) (Setaria viridis): 4 (Herbicidal ratio of 70% or higher and lower than 90%); H: Echinochloa crus-galli var. crus-galli, herbicidal effect (criteria of Test Example 1) [7]: 5 (Herbicidal ratio of 90% or more (almost completely withered)); I: Avena fatua, herbicidal effect (criteria of Test Example 1) (Avena fatua [8]): 2 (Herbicidal ratio of 20% or higher and lower than 40%); L: Apera spica-venti, herbicidal effect (criteria of Test Example 1) (Apera spica-venti [9]): 4 (Herbicidal ratio of 70% or higher and lower than 90%); c: corn, effect on crop (criteria of Test Example 1) (corn): 4 (Herbicidal ratio of 70% or higher and lower than 90%); g: rapeseed, effect on crop (criteria of Test Example 1) (rapeseed): 0 (Herbicidal ratio of 5% or lower (almost no effect)) |
| C#CCON=C(C)CC1CC(O)=C(c2c(C)cc(C)cc2C)C1=O (stereo not shown) [1-019] | 5 (Herbicidal ratio of 90% or more (almost completely withered)) | 2 (Herbicidal ratio of 20% or higher and lower than 40%) | 2 (Herbicidal ratio of 20% or higher and lower than 40%) | 5 (Herbicidal ratio of 90% or more (almost completely withered)) | 5 (Herbicidal ratio of 90% or more (almost completely withered)) | 5 (Herbicidal ratio of 90% or more (almost completely withered)) | 4 (Herbicidal ratio of 70% or higher and lower than 90%) | 3 (Herbicidal ratio of 40% or higher and lower than 70%) | 5 (Herbicidal ratio of 90% or more (almost completely withered)) | 0 (Herbicidal ratio of 5% or lower (almost no effect)) | 5 (Herbicidal ratio of 90% or more (almost completely withered)) | 5 (Herbicidal ratio of 90% or more (almost completely withered)) | 5 (Herbicidal ratio of 90% or more (almost completely withered)) | 5 (Herbicidal ratio of 90% or more (almost completely withered)) | 5 (Herbicidal ratio of 90% or more (almost completely withered)) | 4 (Herbicidal ratio of 70% or higher and lower than 90%) | – | – | – | – | – |
